“Also recorded” adds a separate entry of the source. Blank lines part the entries; values can stand above or below the compound they belong to.
How the values were obtained:
[1] = test system: PCSK9 expression in HEPG2 cells; assay: Berberine signaling in HEPG2: PCSK9 western blot of supernatant; assay type: cell-based, human; conditions: 24 hours; for expression of PCSK9 in supernatant (western blot): 25 to 3.125 ug/ml, versus negative control
Procedure: HEPG2 cells were cultured in 24 well plates to confluence in DMEM supplemented with 10% FBS. After reaching confluence, cells were incubated overnight with 0.1% FBS OPTIMEM for serum starvation. After serum starvation the cells were incubated with berberine, DHB, or THB in 0.1% FBS OPTIMEM using the following dose course: 25 ug/ml, 12.5 ug/ml 6.25 ug/ml 3.125 ug/ml for 24 hours. Supernatant was collected after stimulation and western blotted as follows:
(1) Resolved on 12.5% gel.
(3) Blocked with 3% BSA TBST (4) Rabbit anti PCSK9 (Cayman chemicals cat 10007185) at 1/600 in TTBS (5) Wash 3×5 min with TTBS (6) HRP-Goat anti-Rabbit 1/1000 (Cayman chemicals) (7) Wash 3×5 min with TTBS (8) Detection with ECL
Proprotein convertase subtilisin/kexin type 9 (PCSK9) post-transcriptionally downregulates the low-density lipoprotein receptor (LDLR) by binding to the receptor's epidermal growth factor repeat A on the cell surface and shuttling the LDLR to the lysosomes for degradation. […] Previous reports indicate that berberine has lipid lowering effects in both animal models and human trials (Arrigo F. G., Cicero, L., Rovati C. et al., 2007). The signalling effects of berberine, DHB, and THB were evaluated using the human liver cell line HEPG2. PCSK9, an enzyme that acts in cholesterol homeostasis, is expressed in HEPG2 cells and these cells have previously been used as a model of dyslipidemia. PCSK9 binds to LDL receptor causing uptake of LDL and the LDL receptor and targets both molecules for degradation upon internalization. In the absence of PCSK9, LDL and LDL receptor are still internalized, however, LDL receptor is not degraded but instead recycled to the cell surface resulting in more efficient uptake of circulating LDL.

[2] = Stability of synthetic derivatives DHB and THB in solution (UV/VIS); assay type: physicochemical; conditions: for stability over time (oxidation to berberine): several solvents
Source text: UV/VIS spectrometry is a useful tool for monitoring the conversion of DHB to berberine in solution. Several anti-oxidants and encapsulating agents were combined with DHB in solution to increase stability.

[3] = Solubility testing of berberine and dihydroberberine using various solvents; assay type: physicochemical
Procedure: Solubility was determined in a step-wise procedure that involved attempting to dissolve the berberine/DHB in the solvents at relatively high concentrations. […] Then the expected solvent was added to the berberine/DHB. The container was sonicated at RT or at 40C for 30 minutes. The following solvents were tested to dissolve the DHB. Dimethyl sulfoxide (Reagent Grade; […] Lot #STB[…]), and Glycerol tributyrate (Sigma T8626; Lot #BCBQ […]). […] The solubility was visually checked and state of solubility was recorded.

[4] = test system: male Zucker rat, a model of type-2 diabetes and metabolic disorder; assay: Effect of berberine, metformin and simvastatin on body mass, lipid biomarkers, food and water intake, clinical chemistry (Example 18); assay type: in vivo, obese male Zucker fa/fa rats; conditions: Zucker rats, Days 0 to 28
Procedure: All in vivo animal husbandry, treatment regiments, and sample collections were completed by InterVivo. The study was completed using obese male Zucker fa/fa rats (Charles River) at 10 weeks of age. […] Shaving was performed under anaesthesia one day prior to initiation of test article administration. The area was further shaven, as needed, over the course of the dosing period to ensure accurate drug application and absorption. For dosing procedures, animals were restrained and the transdermal test articles applied in a uniform layer over the entire shaved area. The shaved administration area was cleaned daily with paper towel before the subsequent transdermal dose was administered. Animals receiving test articles via oral gavage were restrained, and a ball-tipped gavage needle (18G) attached to a syringe containing the dosing solution was first inserted into the mouth, and then into the stomach. To determine the appropriate depth of insertion of the needle, the position corresponding to the last rib was measured prior to insertion. […] Group A), oral administration of berberine (180 mg/kg/dose; […] Group C), and oral administration of the vehicle (Group D) (Table 19). […] Group F), or with orally-administered metformin (200 mg/kg/dose; Group G). […] On Day 28, the animals were dosed in the morning only, prior to euthanasia and tissue collection. Animal body weights were performed once weekly from Day −34 to −2 and daily from Day −1 to 28. Rats were weighed, and the scales were operated and maintained, according to standard operating procedures. Food and water consumption measurements were taken over a 24 hour period, once weekly, from Days 0 to 28. Blood was collected via tail nick on Day-1 to determine unfasted blood glucose level for group allocation. Whole blood was collected via the saphenous vein or other appropriate route on Days 0, 7, 14, 21 and 28 immediately prior to test article administration. […] On Day 28, subjects were anaesthetized with isoflurane, and whole blood was collected via cardiac puncture 2.5 hours (+/−5 minutes) following treatment administration on this day. […]

[5] = test system: male Zucker fa/fa rat, a model of type 2 diabetes and metabolic disorder; assay: Efficacy of transdermal berberine alone and in combination with pharmaceuticals in a model of metabolic syndrome (Example 19); assay type: in vivo, obese male Zucker fa/fa rats; conditions: Zucker fa/fa rats
Procedure: Fourteen obese male Zucker fa/fa rats at 5 weeks of age were housed for five weeks to the age of 10 weeks. During these five weeks, body weight measurements were taken once a week and once daily health observations were conducted for all animals. […] On Day 28, serum and whole liver was collected. […] Food and water intake measurements were taken once a week during the study period of Day 0 to Day 28. […] A sufficient amount of test article was supplied and formulated. Test article product was administered at a dose of 3.6 g/kg twice a day (e.g. […] Berberine cream was weighed fresh daily at each AM and PM dosing to avoid desiccation of the test article. Daily PO and TD dosing of the test articles took place between the hours of 08:00 to 10:00 and 16:00 to 18:00 for 7 days a week between Day 0 to 27. […] The exact time of dosing (up to the minute) was recorded for each animal on the daily dosing sheets. […] Remaining dosing solutions were stored at 4° C. between dosing periods. […] The animals shaved underwemt gaseous anaesthetic according to SOP ROD28.01 to ensure accuracy and avoid undue stress of the animal. The area was further shaven as needed over the course of the dosing period to ensure accurate drug application and absorption. At dosing, the animals were restrained and the transdermal test articles were applied in a uniform layer over the entire shaved area. […] PTS3028).

[6] = Plasma concentrations of berberine, berberine glucuronide, simvastatin and simvastatin hydroxy acid in rats (Example 20); assay type: in vivo; conditions: rats (n=2); oral simvastatin 6 mg/kg/dose
[7] = averaged over the entire experiment

oxidation of DHB to berberine on addition of ascorbic acid or cyclodextrin ([2]; UV/VIS): significantly slowed
Dissolving Capability ([3]; Acetone, sonication 40 C.): 25.0 mg/mL
Dissolving Capability ([3]; Acetone, sonication RT): 12.5 mg/mL
Dissolving Capability ([3]; Dimethyl sulfoxide (DMSO), sonication 40 C.): 50.0 mg/mL
Dissolving Capability ([3]; Dimethyl sulfoxide (DMSO), sonication RT): 25.0 mg/mL
Dissolving Capability ([3]; Ethanol, sonication 40 C.): 2.5 mg/mL
Dissolving Capability ([3]; Ethanol, sonication RT): 1.0 mg/mL
Dissolving Capability ([3]; Glycerol tributyrate, sonication 40 C.): 75 to 250 mg/mL
Dissolving Capability ([3]; Glycerol tributyrate, sonication RT): 10 mg/mL
Dissolving Capability ([3]; Hexylene glycol, sonication 40 C.): 1.0 mg/mL
Dissolving Capability ([3]; Hexylene glycol, sonication RT): 0.5 mg/mL
Dissolving Capability ([3]; Isopropyl myristate, sonication 40 C.): 75 to 250 mg/mL
Dissolving Capability ([3]; Isopropyl myristate, sonication RT): 10 mg/mL
Dissolving Capability ([3]; Isosorbid-dimethyl ether 98%, sonication 40 C.): 250 mg/mL
Dissolving Capability ([3]; Isosorbid-dimethyl ether 98%, sonication 40 C., listed as Dihydroberberine): 250 mg/mL
Dissolving Capability ([3]; Isosorbid-dimethyl ether 98%, sonication RT): 25.0 mg/mL
Dissolving Capability ([3]; Mineral oil, sonication 40 C.): 4.0 mg/mL
Dissolving Capability ([3]; Mineral oil, sonication RT): 2.0 mg/mL
Dissolving Capability ([3]; Oleyl alcohol, sonication 40 C., listed as Dihydroberberine): 50 mg/mL
Dissolving Capability ([3]; Oleyl alcohol, sonication 40 C., listed as dihydroberberine): 50.0 mg/mL
Dissolving Capability ([3]; Oleyl alcohol, sonication RT): 12.5 mg/mL
Dissolving Capability ([3]; Propanediol, sonication 40 C.): 2.5 mg/mL
Dissolving Capability ([3]; Propanediol, sonication RT): 1.0 mg/mL
Dissolving Capability ([3]; Trivalin, sonication 40 C.): 5.0 mg/mL
Dissolving Capability ([3]; Trivalin, sonication RT): 2.5 mg/mL
Dissolving Capability ([3]; Water, sonication 40 C.): 1.0 mg/mL
Dissolving Capability ([3]; Water, sonication RT): 0.5 mg/mL
Structure (SMILES): COc1ccc2c(c1OC)CN1CCc3cc4c(cc3C1=C2)OCO4 [DHB, dihydroberberine]
concentration down to which expression of PCSK9 was reduced [1]: 6.25 µg/mL
expression of PCSK9 in supernatant (western blot) [1]: down-regulate the expression of PCSK9; also recorded: reduce the expression of PCSK9
stability over time (oxidation to berberine) [2]: prone to oxidation to provide berberine after a short time

Structure (SMILES): CN(C)C(=N)N=C(N)N [Metformin]
HbA1c (in words) [4]: largest reduction in HbA1c
rate of weight gain (grams/day) ([5]; BID, Day 0 to 28, n=2): 3.3 grams/day
overall triglyceride levels (mmol/L+/−SEM) ([5]; averaged for the entire experiment): 15.1 ± 0.4 mmol/L
overall HbA1c level change (mmol/mmol+/−SEM) [5, 7]: 34.3+/−0.4 mmol/mmol
overall average food intake (grams+/−SEM) [5, 7]: 33.4+/−0.7 grams
overall cholesterol level change (mmol/L+/−SEM) [5, 7]: 5.0 ± 0.4 mmol/L
overall average glucose change (%+/−SEM) ([5]; non-fasting glucose, averaged over the entire experiment): 5.9+/−5.9%

Structure (SMILES): COc1ccc2c(c1OC)CN1CCc3cc4c(cc3C1C2)OCO4 (stereo not shown) [THB, tetrahydroberberine]
expression of PCSK9 in supernatant (western blot) [1]: did not affect expression of PCSK9; also recorded: did not appear to reduce expression of PCSK9
stability over time (oxidation to berberine) [2]: excellent stability in several solvents

systemic simvastatin concentration [6]: 1.83 ng/mL
Structure (SMILES): CCC(C)(C)C(=O)O[C@H]1C[C@@H](C)C=C2C=C[C@H](C)[C@H](CC[C@@H]3C[C@@H](O)CC(=O)O3)[C@H]21 [Simvastatin]
